Literature values in patent US20210319872A1, “DRUG AND DEVICE COMBINATION PRODUCTS WITH IMPROVED SAFETY AND EFFICACY PROFILES” (priority 2016, published 2021).
Where two headings read alike, the source gives them in different places.

[1] = subependymal giant cell astrocytoma

Structure (SMILES): CO[C@H]1C[C@@H]2CC[C@@H](C)[C@@](O)(O2)C(=O)C(=O)N2CCCC[C@H]2C(=O)O[C@H]([C@H](C)C[C@@H]2CC[C@@H](OCCO)[C@H](OC)C2)CC(=O)[C@H](C)/C=C(\C)[C@@H](O)[C@@H](OC)C(=O)[C@H](C)C[C@H](C)/C=C/C=C/C=C/1C [Afinitor]
- Pulmonary embolism (PNET): 2.5%
- Angioedema (Transplant): Other: Angioedema (Transplant, up to 6.8%), Sepsis (tumors less
- Hemolytic uremic syndrome (Transplant): Renal: Hemolytic uremic syndrome (Transplant, less than 1%),
- Pericardial effusion (Transplant): Cardiovascular: Pericardial effusion (Transplant, less than 1%)
- Thrombocytopenia, All grades (Transplant): ≤ 10%
- Thrombotic microangiopathy (Transplant): < 1%), Thrombotic thrombocytopenic purpura (Transplant, less than
- Thrombotic thrombocytopenic purpura (Transplant): < 1%
- Hypoalbuminemia (breast cancer): Hypoalbuminemia (breast cancer, 33%), Hypophosphatemia
- Interstitial lung disease (in vivo): Respiratory: Interstitial lung disease (Less than 1%), Non-
- Non-infectious pneumonia (in vivo): ≤ 19%
- Anemia, All grades (kidney transplant): transplant, 26%), Decreased lymphocyte count, all grades (tumors,
- Constipation (kidney transplant): 38%
- Cough (kidney transplant): 7%
- Diarrhea (kidney transplant): kidney transplant, 19%; liver transplant, 19%), Nausea (tumors,
- Dyslipidemia (kidney transplant): Endocrine metabolic: Dyslipidemia (kidney transplant, 15%),
- Fatigue (kidney transplant): 9%
- Fever (kidney transplant): 19%
- Hypercholesterolemia (kidney transplant): 17%
- Hyperlipidemia (kidney transplant): 21%
- Hypertension (kidney transplant): 30%
- Hypophosphatemia (kidney transplant): 13%
- Impaired wound healing (kidney transplant): Immunologic: Impaired wound healing (kidney transplant, 35%;
- Increased glucose level, All grades (kidney transplant): 12%
- Infectious disease (kidney transplant): 62%
- Leukopenia (kidney transplant): 3%
- Nausea (kidney transplant): 29%
- Peripheral edema (kidney transplant): 45%
- Serum creatinine raised (kidney transplant): 18%
- Stomatitis (kidney transplant): 8%
- Upper respiratory infection (kidney transplant): transplant, 16%)
- Urinary tract infectious disease (kidney transplant): 16%; kidney transplant, 22%)
- Vomiting (kidney transplant): 15%
- Serious side effect, Respiratory (listed without frequency): Pneumocystis pneumonia
- Diarrhea (liver transplant): kidney transplant, 19%; liver transplant, 19%), Nausea (tumors,
- Fever (liver transplant): transplant, 13%)
- Hyperlipidemia (liver transplant): 24%
- Hypertension (liver transplant): 17%
- Impaired wound healing (liver transplant): liver transplant, 11%)
- Infectious disease (liver transplant): 50%
- Leukopenia (liver transplant): 12%
- Nausea (liver transplant): 14%
- Peripheral edema (liver transplant): 18%
- Amenorrhea (renal angiomyolipoma): Reproductive: Amenorrhea (renal angiomyolipoma, 15%),
- Menorrhagia (renal angiomyolipoma): angiomyolipoma, 10%)
- Otitis media (renal angiomyolipoma): Otic: Otitis media (renal angiomyolipoma, 6%)
- Seizure (renal angiomyolipoma): Neurologic: Seizure (renal angiomyolipoma, 5%)
- Hemorrhage (renal cell carcinoma): 3%
- Pneumonia (renal cell carcinoma): 6%
- Renal failure (renal cell carcinoma): Renal failure (renal cell carcinoma, 3%), Thrombosis of renal
- Mental disorder [1]: astrocytoma, 21%)
- Partial thromboplastin time increased [1]: giant cell astrocytoma, 72%), Thrombocytopenia, All grades
- Pleural effusion (tumors): 7%
- Sepsis (tumors): < 1%

Structure (SMILES): OCCN(CCO)c1nc(N2CCCCC2)c2nc(N(CCO)CCO)nc(N3CCCCC3)c2n1 [Dipyridamole]
- Bronchospasm (IV): Respiratory: Bronchospasm (IV, 0.2%)
- Chest pain (IV): Cardiovascular: Chest pain (IV, up to 30%), Electrocardiogram
- Dizziness (IV): 11.8%
- Flushing (IV): 3.4%
- Myocardial infarction (IV): 0.1%
- Ventricular tachycardia (IV): tachycardia (IV, 0.2%)
- Abdominal discomfort (oral): Gastrointestinal: Abdominal discomfort (oral, 6.1%)
- Dizziness (oral): 13.6%
- Headache (oral): 2.3%
- Rash (oral): 2.3%

Structure (SMILES): CN1CCN2c3ncccc3Cc3ccccc3C2C1 (centres unmarked) [Mirtazepine (Remeron)]
- ALT/SGPT level raised (in vivo): Hepatic: ALT/SGPT level raised (2%)
- Asthenia (in vivo): Neurologic: Asthenia (8%), Dizziness (7%), Somnolence (54%)
- Cirrhosis of liver (in vivo): Hepatic: Cirrhosis of liver (less than 0.1%)
- Constipation (in vivo): Gastrointestinal: Constipation (13%), Xerostomia (25%)
- Disturbance in thinking (in vivo): Psychiatric: Disturbance in thinking (3%)
- Dizziness (in vivo): Neurologic: Asthenia (8%), Dizziness (7%), Somnolence (54%)
- Grand mal seizure (in vivo): Neurologic: Grand mal seizure (less than 0.1%), Status epilepticus
- Increased appetite (in vivo): Endocrine metabolic: Increased appetite (17%), Serum triglycerides
- Serum triglycerides raised (in vivo): raised (increases to 500 mg/dL or greater: 6%), Weight gain (body
- Somnolence (in vivo): Neurologic: Asthenia (8%), Dizziness (7%), Somnolence (54%)
- Weight gain (in vivo): weight increase of 7% or greater: adults 7.5%; pediatrics 49%)
- Xerostomia (in vivo): Gastrointestinal: Constipation (13%), Xerostomia (25%)

Structure (SMILES): COCCc1ccc(OCC(O)CNC(C)C)cc1 (centres unmarked) [Metoprolol (Lopressor, Toprol XL)]
- Bradyarrhythmia (in vivo): Cardiovascular: Bradyarrhythmia (3%), Cold extremities (1%),
- Bronchospasm (in vivo): Respiratory: Bronchospasm (1%)
- Cold extremities (in vivo): Cardiovascular: Bradyarrhythmia (3%), Cold extremities (1%),
- Common side effects, listed without incidence (in vivo): Neurologic: Dizziness (10%), Fatigue (10%), Headache
- Constipation (in vivo): Gastrointestinal: Constipation (1%), Diarrhea (5%), Indigestion
- Depression (in vivo): Psychiatric: Depression (5%)
- Diarrhea (in vivo): Gastrointestinal: Constipation (1%), Diarrhea (5%), Indigestion
- Dizziness (in vivo): Neurologic: Dizziness (10%), Fatigue (10%), Headache
- Dyspnea (in vivo): Respiratory: Dyspnea (3%), Wheezing (1%)
- Fatigue (in vivo): Neurologic: Dizziness (10%), Fatigue (10%), Headache
- Heart failure (in vivo): Heart failure (1%), Hypotension (1%)
- Hypotension (in vivo): Heart failure (1%), Hypotension (1%)
- Indigestion (in vivo): (1%), Nausea (1%)
- Nausea (in vivo): (1%), Nausea (1%)
- Pruritus (in vivo): Dermatologic: Pruritus (5%), Rash (5%)
- Rash (in vivo): Dermatologic: Pruritus (5%), Rash (5%)
- Wheezing (in vivo): Respiratory: Dyspnea (3%), Wheezing (1%)

Structure (SMILES): CCC(=O)C(CC(C)N(C)C)(c1ccccc1)c1ccccc1 (centres unmarked) [Methadone]
- Common side effect, Cardiovascular (in vivo): Cardiovascular: Hypotension
- Common side effect, Endocrine metabolic (in vivo): Endocrine metabolic: Diaphoresis
- Common side effect, Gastrointestinal (in vivo): Gastrointestinal: Constipation, Nausea, Vomiting
- Common side effect, Neurologic (in vivo): Neurologic: Asthenia, Dizziness, Lightheadedness, Sedated
- Serious side effect, Endocrine metabolic (in vivo): Endocrine metabolic: Hypoglycemia
- Serious side effect, Other (in vivo): Other: Drug dependence
- Serious side effect, Respiratory (in vivo): Respiratory: Respiratory acidosis, Respiratory arrest, Respiratory

Structure (SMILES): NS(=O)(=O)c1cc(C2(O)NC(=O)c3ccccc32)ccc1Cl (centres unmarked) [Chlorthalidone (Hygroton)]
- Common side effect listed (incidence not given) (in vivo): Endocrine metabolic: Hyperuricemia

Structure (SMILES): O=C(O)Cc1ccccc1Nc1c(Cl)cccc1Cl [Zorvolex]
- Constipation (in vivo): Gastrointestinal: Constipation (5% to 8%), Diarrhea (6%), Nausea
- Diarrhea (in vivo): Gastrointestinal: Constipation (5% to 8%), Diarrhea (6%), Nausea
- Headache (in vivo): Neurologic: Headache (4% to 8%)
- Nasopharyngitis (in vivo): Respiratory: Nasopharyngitis (6%), Sinusitis (3% to 5%), Upper
- Nausea (in vivo): (6% to 7%)
- Serious side effect, Cardiovascular (in vivo): Cardiovascular: Myocardial infarction, Thrombosis
- Serious side effect, Gastrointestinal (in vivo): Gastrointestinal: Gastrointestinal hemorrhage, Gastrointestinal
- Serious side effect, Immunologic (in vivo): Immunologic: Anaphylactoid reaction
- Serious side effect, Neurologic (in vivo): Neurologic: Cerebrovascular accident
- Serious side effect, Renal (in vivo): Renal: Acute renal failure
- Serious side effect, Respiratory (in vivo): Respiratory: Bronchospasm
- Sinusitis (in vivo): Respiratory: Nasopharyngitis (6%), Sinusitis (3% to 5%), Upper
- Upper respiratory infection (in vivo): respiratory infection (8%)
- Urinary tract infectious disease (in vivo): Renal: Urinary tract infectious disease (7%)

Structure (SMILES): CCCCCCCCc1ccc(CCC(N)(CO)CO)cc1 [Gilenya]
- Increased liver enzymes (5 times ULN or greater (ALT, AST)): times ULN or greater (ALT, AST), 4.5%)
- Increased liver enzymes (All elevations (ALT/GGT/AST)): 15%
- Infectious disease (All infections): 72%
- Abdominal pain (in vivo): 11%
- Atrioventricular block (in vivo): Cardiovascular: Atrioventricular block (up to 4.7%),
- Backache (in vivo): Musculoskeletal: Backache (10%), Pain, In Extremity (10%)
- Bradyarrhythmia (in vivo): Bradyarrhythmia (3%.)
- Cough (in vivo): 12%
- Diarrhea (in vivo): 13%
- Headache (in vivo): Neurologic: Headache (25%)
- Herpesvirus infection (in vivo): Immunologic: Cryptococcosis, Herpesvirus infection (9%),
- Influenza (in vivo): Immunologic: Influenza (11%)
- Lymphocytopenia (Severe) (in vivo): Hematologic: Lymphocytopenia (Severe) (7%)
- Pain, In Extremity (in vivo): Musculoskeletal: Backache (10%), Pain, In Extremity (10%)
- Sinusitis (in vivo): 11%
- Serious side effect, Dermatologic (listed without frequency): Dermatologic: Malignant melanoma
- Serious side effect, Immunologic (listed without frequency): Immunologic: Cryptococcosis, Herpesvirus infection (9%),
- Serious side effect, Neurologic (listed without frequency): Cryptococcal meningitis
- Infectious disease (serious infections): 2.3%
- Increased liver enzymes (up to 3 times ULN (ALT, AST)): 14%
